These results are taken from paper PMC9457556, “Newly Designed Quinazolinone Derivatives as Novel Tyrosinase Inhibitor: Synthesis, Inhibitory Activity, and Mechanism” (Molecules, 2022).

Molecules are shown by their SMILES. Read-outs that look alike come from different tables or passages of the source.

In data set [1] the test system is mushroom tyrosinase. Nature of the data set: Mushroom tyrosinase enzyme assay with L-DOPA as substrate (475 nm). The note with it: for inhibitory activity against tyrosinase: result in words; for IC50: L-DOPA oxidation, pH 6.8, 30 °C, mean of triplicate determinations ± standard deviation.
Procedure: Firstly, the effect of the Q1compound against the tyrosinase activity was evaluated.
We measured enzyme assay with L-DOPA as the substrate. We determined enzyme activity at 475 nm in the spectrophotometric experiments. We dissolved the test compounds in DMSO at 1 mM, which was diluted to the required concentration (0, 15, 30, 60, 120, 180, 240, 300 μM). We measured the reaction solution (3 mL), consisting 0.75 mL sodium phosphate buffer (0.1 M, pH 6.8), 1.8 mL H2O, 0.3 mL L-DOPA (2 mM), 0.1 mL test compound, and 0.05 mL enzyme (0.2 mg /L), at 30 °C. We replaced test samples as control. We determined each concentration in three experiments. We used the concentration that inhibited half of the enzyme activity (IC50) to measure the inhibitory effect of inhibitor. We investigated kinetic parameters with increasing concentrations of L-DOPA and test samples by the Lineweaver–Burk double-reciprocal plot and Dixon plot methods. We calculated the % inhibition of tyrosinase as follows: Inhibition (%) = [1 − B/A]/100, where the A and B are the absorbances of the blank control and samples, respectively.
In data set [2] the target is mushroom tyrosinase. Set-up: method as in PMID 20638280. Particulars: standard inhibitor; cited from earlier work.
Data set [3] concerns mushroom tyrosinase. Kind of data set: Fluorescence quenching of mushroom tyrosinase. The class given is binding. The note with it: Q1 at 36 μM; excitation 290 nm, emission peak 333 nm. The procedure: The intrinsic interaction mechanisms of Q1 on the tyrosinase were investigated by the fluorescence quenching analysis. The fluorescence emission spectrum was recorded as ranging from 310 to 550 nm at a 290 nm excitation wavelength. […] However, the fluorescence intensity of tyrosinase reduced gradually as the concentration of the citral derivative increased.
(§1) We used fluorescence analysis (Varian Cary Eclipse fluorescence spectrophotometer) to perform fluorescence experiment, and set the excitation wavelength at 290 nm. We mixed inhibitor solution, substrates of tyrosine/L-DOPA or enzyme solution, and sodium phosphate buffer (pH 6.8) at the volumetric ratio of 1:1:8 (v/v/v).

Data set [4] relates to mushroom tyrosinase. Nature of the data set: Kinetic studies of tyrosinase inhibition (enzyme concentration plots, Lineweaver-Burk plots). It counts as biochemical. The procedure:
To ascertain the inhibition type and mechanism of Q1, we studied the relationship between the enzyme concentration and the remaining enzyme activity with various concentrations of Q1 (0, 15, 60, and 120 μM).
Different concentrations of the compound Q1 (0, 15, 60, and 120 μM) were applied to inhibit tyrosinase and obtain the kinetic behavior of tyrosinase catalysis. Lineweaver–Burk reciprocal plots were used to investigate the inhibition modes of Q1 on mushroom tyrosinase. […] Thus, Q1 could bind not only to the free enzymes but also to the enzyme–substrate complexes. […] Additionally, the value of KIS was measured to be 423.63 μM from the concentrations of the compound versus the vertical intercept.
We purchased mushroom tyrosinase (with specific activity 6680 U/mg), and L-3,4-dihydroxyphenyl-alanine (L-DOPA) from Sigma (St. Louis, MO, USA). We measured enzyme assay with L-DOPA as the substrate. We determined enzyme activity at 475 nm in the spectrophotometric experiments. We dissolved the test compounds in DMSO at 1 mM, which was diluted to the required concentration (0, 15, 30, 60, 120, 180, 240, 300 μM). We measured the reaction solution (3 mL), consisting 0.75 mL sodium phosphate buffer (0.1 M, pH 6.8), 1.8 mL H2O, 0.3 mL L-DOPA (2 mM), 0.1 mL test compound, and 0.05 mL enzyme (0.2 mg /L), at 30 °C. We replaced test samples as control. We determined each concentration in three experiments. We used the concentration that inhibited half of the enzyme activity (IC50) to measure the inhibitory effect of inhibitor. We investigated kinetic parameters with increasing concentrations of L-DOPA and test samples by the Lineweaver–Burk double-reciprocal plot and Dixon plot methods. We calculated the % inhibition of tyrosinase as follows: Inhibition (%) = [1 − B/A][…], where the A and B are the absorbances of the blank control and samples, respectively.

Data set [5] can be described thus: Fluorescence quenching of L-DOPA. The class given is binding. Particulars: Q1 from 0 to 36 μM; intensity 1619 to 879.9. As for the experimental part: Finally, the fluorescence emission spectra of L-DOPA were tested in the solutions of Q1 with various concentrations. […] Similarly, the fluorescence emission intensity of Q1 disappeared when it was added to the solution. The results inferred that Q1 was also a good L-DOPA binding agent.
as §1

A short description of data set [6]: Fluorescence quenching of tyrosine. The class given is binding. The note with it: Q1 from 0 to 36 μM; intensity 447.6 to 216.5.
From the text: We also investigated the fluorescence quenching Q1 experiment regarding tyrosine activity, and recorded the fluorescence intensity of tyrosine in the range of […]. […] Thus, the compound was also a good binding agent for tyrosine in a dose-dependent manner.
as §1

With `COc1ccc(-c2nc3ccccc3c(=O)[nH]2)cc1` [Compound Q7, 2-(4-methoxyphenyl)quinazolin-4(3H)-one], the “inhibitory activity against tyrosinase” value in the data set on mushroom tyrosinase [1] is recorded as “did not exhibit inhibitory activity”.

Consider `CC(C)=CCCC(C)=Cc1nc2cc(C)ccc2c(=O)[nH]1` [Compound Q4, 2-(2,6-dimethylhepta-1,5-dien-1-yl)-7-methylquinazolin-4(3H)-one], for which the melting point was in the range of 188 to 192 °C. 253 ± 2 µM corresponded to half-maximal inhibition on mushroom tyrosinase [1] (IC50).

For the molecule `Cc1ccc(-c2nc3ccccc3c(=O)[nH]2)cc1` [Compound Q6, 2-(p-tolyl)quinazolin-4(3H)-one], the “inhibitory activity against tyrosinase” value in the data set on mushroom tyrosinase [1] was “did not exhibit inhibitory activity”.

As to `CC(C)=CCCC(C)=Cc1nc2ccc(Cl)cc2c(=O)[nH]1` [Compound Q3, 6-chloro-2-(2,6-dimethylhepta-1,5-dien-1-yl)quinazolin-4(3H)-one], the melting point lay in the range of 190 to 192 °C. The molecule further returned an IC50 at mushroom tyrosinase [1] of 168 ± 2 µM.

Take `OC[C@H]1O[C@@H](Oc2ccc(O)cc2)[C@H](O)[C@@H](O)[C@@H]1O` [arbutin]: at mushroom tyrosinase [2], the half-maximal inhibitory concentration (IC50) is 180 µM.

For the molecule `CC(C)=CCCC(C)=Cc1nc2ccccc2c(=O)[nH]1` [Compound Q1, 2-(2,6-dimethylhepta-1,5-dien-1-yl)quinazolin-4(3H)-one], the “relative fluorescence intensity of tyrosinase” value in the data set on mushroom tyrosinase [3] is on record as 39.45%. Besides, the inhibition type result with mushroom tyrosinase [4] (Lineweaver-Burk plots, Q1 at 0, 15, 60, 120 μM) was “mixed inhibition type”. In addition, the reversibility of inhibition result in the data set with mushroom tyrosinase [4] (enzyme activity versus enzyme concentration, Q1 at 0, 15, 60, 120 μM) is “reversible”. The molecule also registered a KIS on mushroom tyrosinase [4] (enzyme-substrate complex, from vertical intercept versus compound concentration) of 423.63 µM. Further, the Ki on mushroom tyrosinase [4] (free enzyme, from plots of slope versus compound concentration, read-out: inhibitor constant (KI)) was 117 µM. The “decrease of fluorescence intensity of L-DOPA” value in data set [5] worked out at 45.65%. This molecule also registered an IC50 on mushroom tyrosinase [1] of 103 ± 2 µM. Also, the “decrease of fluorescence intensity of tyrosine” value in data set [6] is given as 51.63%.

Take `CC(C)=CCCC(C)=Cc1nc2cccc(F)c2c(=O)[nH]1` [Compound Q2, 2-(2,6-dimethylhepta-1,5-dien-1-yl)-5-fluoroquinazolin-4(3H)-one]: the melting point was in the range of 189 to 191 °C. The molecule also came in with an IC50 against mushroom tyrosinase [1] of 105 ± 1 µM.

In general, IC50 refers to the concentration that gives 50% inhibition. Broadly, the melting point is the temperature of the solid-liquid transition. One may read the Ki as the dissociation constant of the complex between target and ligand, obtained from inhibition or displacement.
